Laboratory results taken from PubChem BioAssay (NCI).
Values joined by “and” are separate entries in the source; they are usually repeats but may differ in a detail not shown here. Equal values may be shown once.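 Where inhibition never reached the appropriate level, the endpoint shown equals the highest concentration tested. Otherwise, values were interpolated linearly from a five-concentration, 48-hour dose response in 96-well plates. GI50 = concentration required for 50% inhibition of growth. TGI marks complete inhibition of growth.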

How the values were obtained:
Experiment in all cases: growth of human tumour cells (NCI), 48 h
786-0 renal = tested on: 786-0 renal
ACHN renal = tested on: ACHN renal
BT-549 breast = tested on: BT-549 breast
CAKI-1 renal = tested on: CAKI-1 renal
HL-60(TB) leukemia = tested on: HL-60(TB) leukemia
M14 melanoma = tested on: M14 melanoma
MDA-MB-435 = tested on: MDA-MB-435
NCI-H522 lung = tested on: NCI-H522 lung
OVCAR-8 ovarian = tested on: OVCAR-8 ovarian
SK-MEL-2 melanoma = tested on: SK-MEL-2 melanoma

| Structure (SMILES) | GI50 (786-0 renal) [µM] | TGI (786-0 renal) [µM] | GI50 (ACHN renal) [µM] | TGI (ACHN renal) [µM] | GI50 (BT-549 breast) [µM] | TGI (BT-549 breast) [µM] | GI50 (CAKI-1 renal) [µM] | TGI (CAKI-1 renal) [µM] | GI50 (HL-60(TB) leukemia) [µM] | TGI (HL-60(TB) leukemia) [µM] | GI50 (M14 melanoma) [µM] | TGI (M14 melanoma) [µM] | GI50 (MDA-MB-435) [µM] | TGI (MDA-MB-435) [µM] | GI50 (NCI-H522 lung) [µM] | TGI (NCI-H522 lung) [µM] | GI50 (OVCAR-8 ovarian) [µM] | TGI (OVCAR-8 ovarian) [µM] | GI50 (SK-MEL-2 melanoma) [µM] | TGI (SK-MEL-2 melanoma) |
| --- | --- | --- | --- | --- | --- | --- | --- | --- | --- | --- | --- | --- | --- | --- | --- | --- | --- | --- | --- | --- |
| COc1ccc(-c2nc(-c3nc4ccc(F)cc4[nH]3)cc3c2[nH]c2ccccc23)cc1 | 3.33 | > 100 | 2.87 | > 100 | 3.18 | 9.72 | 3.87 | > 100 | 2.83 | 7.23 | 2.54 | 7.12 | 2.58 | 13.4 | 2 | 5.97 | 1.78 | 6.69 | 2.11 | 4.45 µM |
| CCN(CC)c1ccc(NC(C(=O)c2ccccc2)c2ccccc2)cc1 (stereo not given) | 1.83 | 3.59 | 1.9 | 3.82 | 2.85 | 9.59 | 3.36 | 11.6 | 3.24 | 20.9 | 2.16 | 5.91 | 2.25 | 6.05 | 2.3 | 7.05 | 3.28 | > 100 | 3.44 | 16.8 µM |
| O=C1Nc2ccc(Cl)cc2/C1=C\c1c(-c2ccc(F)cc2)nc2ccccn12 | 2.18 | 5.2 | 3.25 | 11.4 | 2.46 | 6.72 | 2.25 | 6.45 | 1.88 | 4.48 | 3.02 | 8.62 | 1.99 | 5.03 | 2.17 | 5.42 | 2.28 | 5.99 | 2.66 | 6.17 µM |
| Cc1ccc(NS(=O)(=O)c2ccc(-c3cnc(C4CC4)o3)cc2)cc1 | 6.4 | 21 | 4.43 | 18.4 | 5.14 | 19.7 | 2.77 | 15.4 | 2.47 | 9.71 | 1.56 | 11.7 | 0.879 | 3.94 | 2.43 | 17.4 | 5.24 | 24.3 | 5.06 | 18.8 µM |
| CCCC[C@@H]1NC(=O)[C@H](CCCCN)NC(=O)[C@H](CCCNC(=N)N)NC(=O)[C@H](CC(C)C)NC(=O)[C@@H](NC(=O)[C@H](Cc2cccc(Cl)c2)NC(=O)[C@@H]2CCCN2C(=O)[C@@H](NC(C)=O)C(C)C)CCSSC[C@@H](C(=O)N[C@@H](CCCCN)C(=O)N2CCC[C@H]2C(=O)N2CCC[C@H]2C(=O)N[C@@H](CCC(=O)O)C(N)=O)NC(=O)[C@H](Cc2ccccc2)NC(=O)[C@H](CO)NC(=O)[C@H](C)NC(=O)[C@@H]2CCCN2C1=O | > 50 | > 50 | > 50 | > 50 | > 50 | > 50 | > 50 | > 50 | > 50 | > 50 | > 50 | > 50 | > 50 | > 50 | > 50 | > 50 | > 50 | > 50 | > 50 | > 50 µM |
| CCCOC(=O)N[C@H]1CCc2c(Br)c(OC)c(OC)c(OC)c2-c2ccc(SC)c(=O)cc21 | 0.0407 | 11.4 | 0.0431 | 30.4 | 0.0223 | 6.39 | 0.0339 | 19.2 | 0.0245 | 0.0784 | 0.0207 | 3.67 | < 0.01 | 0.0189 | < 0.0119 | 0.558 | 0.0438 | > 100 | 2.44 | 37.1 µM |
| CCC(=O)Sc1ccccc1C(=O)Nc1ccc(Cl)cc1 | 15 | 41.8 | 16.5 | 71.6 | 3.21 | 9.89 | 10.2 | 38.4 | 3.65 | 19.8 | 6.42 | 43.9 | 6.92 | 39.9 | 6.21 | 27.1 | 17.4 | > 100 | 25.7 | > 100 µM |
| COC1=CC(c2ccc[nH]2)=N/C1=C\c1[nH]c(C)c(C(=O)CCC(=O)Oc2ccc3c(c2)CCC2C3CC[C@]3(C)C(=O)CC[C@@H]23)c1C (stereo not given in full) | 6 | 39.1 | 5.82 | > 100 | 15.5 | > 100 | 8.77 | > 100 | 50.2 | > 100 | 12.3 | 33.4 | 7.7 | > 100 | 4.71 | 60.1 | 8.37 | > 100 | 15.6 | 58.7 µM |
| COCCNCC(O)Cn1c2ccc(Cl)cc2c2cc(Cl)ccc21 (stereo not given) | 1.8 | 3.42 | 1.87 | 3.76 | 2.06 | 4.36 | 1.7 | 3.36 | 2.05 | 4.51 | 2.06 | 4.16 | 1.7 | 3.19 | 2.03 | 3.89 | 2.06 | 5.08 | 2.16 | 4.18 µM |
| COc1ccc2c(c1)C(=O)c1c-2c(NCCCN(C)C)nc2ccccc12 | 4.24 | 18.7 | 1.11 | 2.31 | 21.8 | 62.3 | 12.5 | 29.6 | 2.63 | 12.3 | 5.41 | 17.9 | 4.05 | 15.4 | 9.79 | 23.4 | 1.74 | 7.67 | 18.4 | 34.3 µM |
| COc1cc2c(cc1OC)C13CCN4CC5=CCOC(CC(=O)O)C(C5CC41)C3N2 (stereo not given) | – | > 100 | – | > 100 | – | > 100 | – | > 100 | – | > 100 | – | > 100 | – | > 100 | – | > 100 | – | > 100 | – | > 100 µM |
| O=C(Cn1ccnc1[N+](=O)[O-])N(CCO)CCO | – | > 250 | – | > 250 | – | > 250 | > 1250 | > 1250 | > 1250 | > 1250 | – | > 250 | – | > 250 | > 1250 | > 1250 | > 1250 | > 1250 | > 1250 | 250 µM and > 1250 µM |
